Experimental findings from BindingDB's records for PubMed 36416208 (n/a, 2022) are described below.

The target in this assay is Serine/threonine-protein kinase PAK 1 (Homo sapiens, UniProt Q13153). Nature of the assay: Inhibition of human recombinant PAK1 assessed as phosphorylation FRET peptide substrate measured after 60 mins.
Chain of Serine/threonine-protein kinase PAK 1 (Q13153 whole entry): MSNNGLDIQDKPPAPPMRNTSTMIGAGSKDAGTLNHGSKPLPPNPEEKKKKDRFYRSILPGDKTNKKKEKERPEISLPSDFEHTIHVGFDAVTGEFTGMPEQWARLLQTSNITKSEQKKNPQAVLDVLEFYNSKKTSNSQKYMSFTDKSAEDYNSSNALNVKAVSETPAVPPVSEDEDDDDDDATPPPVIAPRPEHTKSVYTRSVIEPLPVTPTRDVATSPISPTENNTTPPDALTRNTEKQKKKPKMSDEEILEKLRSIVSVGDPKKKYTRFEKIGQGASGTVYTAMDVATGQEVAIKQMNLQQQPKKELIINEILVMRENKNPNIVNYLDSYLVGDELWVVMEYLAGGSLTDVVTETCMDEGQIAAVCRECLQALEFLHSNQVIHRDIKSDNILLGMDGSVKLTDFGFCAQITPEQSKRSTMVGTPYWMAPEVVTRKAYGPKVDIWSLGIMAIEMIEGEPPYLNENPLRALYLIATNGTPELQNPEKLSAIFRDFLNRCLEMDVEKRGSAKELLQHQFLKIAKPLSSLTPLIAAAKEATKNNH

For the compound `CN1C(=O)CCC(N2C(=O)c3cccc(NCCCCCCCCNC(=O)N4CC[C@H](NC5=Nc6cc(F)ccc6N(CC(F)F)c6ccc(Cl)cc65)C4)c3C2=O)C1=O` (stereo partly specified), the IC50 came out at 233 nM.

As a reminder, the IC50 is the concentration that inhibits the measured activity by half.
